In brackets after ≈: the same amount, converted by molar mass.
How the values were obtained:
[1] = tested on: Mus musculus; assay: Anti-inflammatory activity in mouse IL-1-induced paw inflammation model assessed as inhibition of neutrophil infiltration at 10 mg/kg, po; format: functional; details: for inhibition in vivo at 10 mg/kg: Mus musculus, po
[2] = tested on: Mus musculus; assay: Analgesic activity in mouse assessed as reduction in phenylquinone-induced number of writhes at 20 mg/kg, ip; format: functional; design: scale not given: the % may be the effect or the level left
[3] = tested on: Mus musculus; assay: Neuropharmacological activity in iv dosed Charles River Swiss mouse assessed as minimum dose at which reactive signs were observed in half of mouse tested; format: functional
[4] = Displacement of [3H]-diazepam from benzodiazepine receptor in rat brain membranes after 30 mins; format: cell membranes, Membrane
[5] = tested on: Rattus norvegicus; assay: Analgesic activity in Sprague-Dawley rat assessed as reduction in phenylbenzoquinone-induced number of writhes at 20 mg/kg, sc incubated for 60 mins; format: functional; design: scale not given: the % may be the effect or the level left
[6] = biological target: Intercellular adhesion molecule 1 (Homo sapiens, UniProt P05362); assay: Inhibition of ICAM1 (unknown origin)
[7] = tested on: PBMC; assay: Inhibition of PHA-induced cell proliferation of human PBMC at 50 ug/ml incubated for 4 days by MTT method; format: functional; details: 96 h
[8] = tested on: PBMC; assay: Cytotoxicity in human PBMCs assessed as reduction in cel viability at 50 ug/ml; format: cell-based
[9] = tested on: Mus musculus; assay: Anti-inflammatory activity in IL1-induced paw inflammation Balb/c mouse model assessed as inhibition of neutrophil migration at 10 mg/kg, po, pretreated for 30 mins followed by IL1 challenge measured after 2 hrs by spectrophotometric method; format: functional
[10] = tested on: MCF7; assay: Cytotoxicity against human MCF7 cells incubated for 72 hrs by WST1 dye based assay; format: functional, cell-based; details: MCF7, 72 h
[11] = biological target: Cholinesterase (Equus caballus) (UniProt P81908); assay: Inhibition of horse serum BChE at 10 uM
[12] = biological target: Cholinesterase (Equus caballus, UniProt P81908); assay: Inhibition of horse serum BChE
[13] = tested on: PBMC; assay: Inhibition of LPS-induced TNFalpha profduction in human PBMC at 5 ug/ml; format: functional
[14] = tested on: Trichophyton mentagrophytes; assay: Antimicrobial activity against Trichophyton mentagrophytes assessed as reduction in microbial growth at 100 ppm relative to control; format: functional
[15] = tested on: Staphylococcus aureus; assay: Antimicrobial activity against Staphylococcus aureus assessed as reduction in bacterial growth at 100 ppm relative to control; format: functional
[16] = tested on: Aspergillus terreus; assay: Antimicrobial activity against Aspergillus terreus assessed as reduction in microbial growth at 100 ppm relative to control; format: functional
[17] = tested on: Candida albicans; assay: Antimicrobial activity against Candida albicans assessed as reduction in […] growth at 100 ppm relative to control; format: functional
[18] = tested on: Aureobasidium pullulans; assay: Antimicrobial activity against Pullularia pullulans assessed as reduction in microbial growth at 100 ppm relative to control; format: functional
[19] = Inhibition of soybean 15-lipoxygenase; design: species or system Glycine max
[20] = tested on: UO-31; assay: Growth inhibition of human UO31 cells at 10 uM; format: functional; details: read-out: GI
[21] = tested on: Enterococcus faecalis; assay: Antibacterial activity against Enterococcus faecalis; format: functional
[22] = tested on: Escherichia coli; assay: Antibacterial activity against Escherichia coli; format: functional; details: Escherichia coli
[23] = tested on: Bacillus cereus; assay: Antibacterial activity against Bacillus cereus; format: functional, organism-based
[24] = tested on: HFF-1; assay: Cytotoxicity against human HFF1 cells incubated for 72 hrs by WST1 dye based assay; format: cell-based; details: HFF-1, 72 h
[25] = Inhibition of lipoxygenase in rat peritoneal cavity resident cells
[26] = tested on: Candida albicans; assay: microbe, parasite or virus in culture
[27] = tested on: Staphylococcus aureus; assay: Antibacterial activity against Staphylococcus aureus; format: functional; details: Staphylococcus aureus; read-out: MIC
[28] = Inhibition of LTB4 formation in rat polymorphonuclear leukocytes preincubated for 2 mins followed by A-23187 addition after 4 mins; format: functional, cell-based

Intercellular adhesion molecule 1, sequence (P05362 whole entry): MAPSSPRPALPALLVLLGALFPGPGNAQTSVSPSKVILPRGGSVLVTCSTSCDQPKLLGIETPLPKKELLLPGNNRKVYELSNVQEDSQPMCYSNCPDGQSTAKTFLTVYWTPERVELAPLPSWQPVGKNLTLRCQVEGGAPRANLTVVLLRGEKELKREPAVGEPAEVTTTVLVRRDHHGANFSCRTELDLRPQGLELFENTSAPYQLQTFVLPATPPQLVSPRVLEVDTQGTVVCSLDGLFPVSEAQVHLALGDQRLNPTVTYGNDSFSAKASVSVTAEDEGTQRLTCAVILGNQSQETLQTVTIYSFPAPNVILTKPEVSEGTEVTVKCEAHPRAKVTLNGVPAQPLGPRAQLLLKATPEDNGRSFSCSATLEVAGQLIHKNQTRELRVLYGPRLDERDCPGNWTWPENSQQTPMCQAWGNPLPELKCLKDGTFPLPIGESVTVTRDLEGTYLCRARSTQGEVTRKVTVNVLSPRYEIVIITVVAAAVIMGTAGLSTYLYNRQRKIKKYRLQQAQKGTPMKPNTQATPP
Cholinesterase (Equus caballus), sequence (P81908 whole entry): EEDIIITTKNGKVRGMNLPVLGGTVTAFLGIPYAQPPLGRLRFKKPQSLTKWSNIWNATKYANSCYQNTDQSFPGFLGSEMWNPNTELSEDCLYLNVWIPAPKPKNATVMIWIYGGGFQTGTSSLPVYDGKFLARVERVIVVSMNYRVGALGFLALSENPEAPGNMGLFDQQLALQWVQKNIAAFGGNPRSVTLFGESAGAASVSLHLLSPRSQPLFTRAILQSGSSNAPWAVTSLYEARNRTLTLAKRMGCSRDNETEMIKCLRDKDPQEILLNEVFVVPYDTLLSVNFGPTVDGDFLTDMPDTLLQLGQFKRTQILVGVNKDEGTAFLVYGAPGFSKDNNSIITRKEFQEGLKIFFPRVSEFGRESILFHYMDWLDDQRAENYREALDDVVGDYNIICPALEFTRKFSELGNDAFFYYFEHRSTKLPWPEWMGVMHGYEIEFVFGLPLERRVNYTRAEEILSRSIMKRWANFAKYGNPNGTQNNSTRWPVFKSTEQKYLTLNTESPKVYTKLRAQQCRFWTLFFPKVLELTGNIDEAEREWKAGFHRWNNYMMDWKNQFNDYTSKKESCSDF
Cholinesterase, sequence (P81908 whole entry): as above

Structure (SMILES): O=C(O)CC1C2CCC1CN(Cc1ccc3c(c1)Nc1nccnc1S3)C2 (stereo not drawn)
- inhibition in vivo at 10 mg/kg [1]: 83.2%

Structure (SMILES): CN(C)CCSc1nnc2c3c(cnn12)Sc1ccccc1N3
- Activity [2]: 54 - 65%

Structure (SMILES): CC(C)N(CCSC(=O)N1c2ccccc2Sc2cccnc21)C(C)C
- MED50 [3]: 0.058 to 1.8 mg/kg

Structure (SMILES): N#Cc1c(O)ncc2c1Nc1ccccc1S2
- IC50 [4]: 0.31 to 0.91 µM

Structure (SMILES): CN(C)CCN1c2ccccc2Sc2cnccc21.O=C(O)C(=O)O
- Activity [5]: 59 - 86%

Structure (SMILES): O=C(O)CC1C2CCCC1CN(Cc1ccc3c(c1)Nc1nccnc1S3)C2 (stereo in doubt; 64d)
- IC50 [6]: 2.3 µM
- inhibition (INH) [1]: 80.6%

Structure (SMILES): CC(=O)NCCCN1c2cnccc2Sc2cccnc21
- inhibition at 50 µg/mL [7]: 60%
- Activity [8]: <= 22%

Structure (SMILES): O=S(=O)(NC1CCN(Cc2ccc3c(c2)Nc2nccnc2S3)CC1)N1CCOCC1
- IC50 [6]: 0.27 to 1.4 µM
- inhibition in vivo at 10 mg/kg [9]: 66.1%

Structure (SMILES): CN1CCN(CC#CCN2c3cccnc3Sc3cccnc32)CC1
- IC50 [10]: 7.5 mg/L (≈ 21.3 µM)

Structure (SMILES): CSc1ccc2c(c1)Sc1cc3ccccc3nc1N2CCC1CCCCN1C (stereo not drawn)
- inhibition [11]: 99.9%
- IC50 [12]: 0.0244 µM

Structure (SMILES): O=C(O)CC1CC2(CCN(Cc3ccc4c(c3)Nc3nccnc3S4)CC2)C1
- IC50 [6]: 0.42 to 1 µM
- inhibition in vivo at 10 mg/kg [1]: 88.8%

Structure (SMILES): CC(CN(C)C)CN1c2cnccc2Sc2cccnc21 (stereo not drawn)
- inhibition at 5 µg/mL [13]: > 85%
- inhibition at 50 µg/mL [7]: 60%
- Activity [8]: <= 22%

Structure (SMILES): O=C(O)C(=O)O.c1ccc2c(c1)Sc1cnccc1N2CCCN1CCOCC1
- Activity [5]: 59 - 86%

Structure (SMILES): CN(C)CCCN1c2ccccc2Sc2nc(Cl)c(Cl)nc21
- inhibition at 100 ppm [14]: 100%
- inhibition at 100 ppm [15]: 100%
- inhibition at 100 ppm [16]: 100%
- inhibition at 100 ppm [17]: 100%
- inhibition at 100 ppm [18]: 100%

Structure (SMILES): CN1CCN(Cc2nnc3c4c(cnn23)Sc2ccccc2N4)CC1
- Activity [2]: 54 - 65%

Structure (SMILES): c1ccc2c(c1)Nc1nnc(N3CCOCC3)cc1S2
- IC50 [19]: > 287 µM

Structure (SMILES): C#CCN1c2cnccc2Sc2cccnc21
- inhibition at 5 µg/mL [13]: > 85%
- Activity [8]: <= 22%

Structure (SMILES): c1ccc(CN2c3nc4ccccc4cc3Sc3cc4ccccc4nc32)cc1
- inhibition of growth at 10 µM [20]: 57 to 73%

Structure (SMILES): O=C(O)C(=O)O.c1ccc2c(c1)Sc1cnccc1N2CCCN1CCCC1
- Activity [5]: 59 - 86%

Structure (SMILES): CS(=O)(=O)NC1CCN(Cc2ccc3c(c2)Nc2nccnc2S3)CC1
- IC50 [6]: 0.27 to 1.4 µM
- inhibition in vivo at 10 mg/kg [9]: 83.4 to 89.7%

Structure (SMILES): CN(C)CCCN1c2cnccc2Sc2cccnc21
- inhibition at 5 µg/mL [13]: > 85%
- inhibition at 50 µg/mL [7]: > 70%
- Activity [8]: <= 22%

Structure (SMILES): c1cnc2c(c1)Sc1ccncc1N2CCN1CCCC1
- inhibition at 5 µg/mL [13]: > 85%
- Activity [8]: <= 22%

Structure (SMILES): O=[N+]([O-])c1ccc(N2c3nc4ccccc4cc3Sc3cc4ccccc4nc32)cc1
- inhibition of growth at 10 µM [20]: 57 to 73%

Structure (SMILES): CN1CCCCC1CCN1c2ccc(Cl)cc2Sc2cc3ccccc3nc21 (stereo not drawn)
- inhibition [11]: 99.9%
- IC50 [12]: 0.122 µM

Structure (SMILES): CS(=O)(=O)NCC1CCN(Cc2ccc3c(c2)Nc2nccnc2S3)CC1
- IC50 [6]: 0.27 to 1.4 µM
- inhibition in vivo at 10 mg/kg [9]: 77.6%

Structure (SMILES): C[n+]1cc2c(c3ccccc31)Nc1ccc(Cl)cc1S2.[Cl-]
- MIC [21]: 4 mg/L
- MIC [22]: 6 mg/L

Structure (SMILES): Clc1nc2c(nc1Cl)N(CCCN1CCCC1)c1ccccc1S2
- inhibition at 100 ppm [14]: 100%
- inhibition at 100 ppm [15]: 100%
- inhibition at 100 ppm [16]: 100%
- inhibition at 100 ppm [17]: 100%
- inhibition at 100 ppm [18]: 100%

Structure (SMILES): COc1ccc2c(n1)Sc1c3c(c4ccccc4c1=N2)=Nc1c(N)ncnc1O3
- MIC [23]: 77.1 mg/L (≈ 193 µM)
- MIC [22]: 87.1 to 97.1 mg/L (≈ 218 to 242 µM)

Structure (SMILES): O=[N+]([O-])c1cnccc1N1c2cccnc2Sc2cccnc21
- IC50 [10]: 4.6 mg/L (≈ 14.2 µM)
- IC50 [24]: ≥ 50 mg/L

Structure (SMILES): CN1c2ccccc2Sc2cnc(O)c(C#N)c21
- IC50 [4]: 0.31 to 0.91 µM

Structure (SMILES): O=C(NCCCl)NCCCN1c2ccc(Cl)cc2Sc2cc3ccccc3nc21
- inhibition [11]: 80%

Structure (SMILES): Cc1ncc2c(n1)N=c1c(c3c(c4ccccc14)=Nc1cc([N+](=O)[O-])ccc1O3)S2
- MIC [23]: 87.1 mg/L (≈ 211 µM)
- MIC [22]: 87.1 to 97.1 mg/L (≈ 211 to 235 µM)

Structure (SMILES): O=c1[nH]c2c(c(=O)[nH]1)Nc1ccccc1S2 [PYRIMIDOBENZOTHIAZINE]
- IC50 [25]: 5.3 µM

Structure (SMILES): Cn1c(=O)[nH]c2c(c1=O)Nc1ccccc1S2
- IC50 [25]: 1.9 µM

Structure (SMILES): Nc1nc(O)c2c(n1)N=c1c(c3c(c4ccccc14)=Nc1ccccc1S3)S2
- MIC [26]: 91.2 mg/L (≈ 227 µM)
- MIC [27]: 79.4 mg/L (≈ 198 µM)

Structure (SMILES): CN1c2ccccc2Sc2nccnc21
- IC50 [28]: 1 to 5 mg/L (≈ 4.65 to 23.2 µM)

Structure (SMILES): O=C(O)C(=O)O.c1ccc2c(c1)Sc1cnccc1N2CCCN1CCCCC1
- Activity [5]: 59 - 86%

Structure (SMILES): COc1ccc2c(n1)Sc1c3c(c4ccccc4c1=N2)=Nc1ccc(OC)nc1S3
- MIC [26]: 72.4 mg/L (≈ 168 µM)
- MIC [22]: 144 mg/L (≈ 336 µM)

Structure (SMILES): O=C(O)c1ccc(CC2CCN(Cc3ccc4c(c3)Nc3nccnc3S4)CC2)cc1
- IC50 [6]: 0.42 to 1 µM
- inhibition in vivo at 10 mg/kg [1]: 88%
